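Values below derive from 48-hour exposures of cells grown in 96-well plates, with endpoints linearly interpolated between the two concentrations bracketing the appropriate inhibition level. At the GI50, growth is halved. TGI denotes the concentration required for complete inhibition of growth.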 Some results are limits rather than exact numbers.

Test systems include P388 leukemia; KM20L2 colon; DLD-1 colon; P388/ADR leukemia; XF 498 CNS; MDA-N; 786-0 renal; LXFL 529 NSCLC; RXF-631 renal.
Test in all cases: NCI tumour cell line growth inhibition, 48 h

`CCN(CC)CCCNc1ncc(C)c2[nH]c3ccncc3c12`: the TGI in the assay on P388 leukemia was 15.3 µM; in the assay with KM20L2 colon it was 31 µM; in the assay on DLD-1 colon it was above 79.9 µM; with P388/ADR leukemia, above 100 µM; in the assay with XF 498 CNS, 24 µM.

For the compound `Nc1nc(Cl)cc(OCC2(CO)CC(OCc3ccccc3)C2)n1` (stereo not drawn), the GI50 in the assay with MDA-N is 64.4 µM.

Take `COC(=O)c1cccc(N[C@@H]2c3cc4c(cc3C(c3cc(OC)c(O)c(OC)c3)[C@H]3C(=O)OCC32)OCO4)c1` (stereo partly drawn): the TGI is 0.826 µM with P388 leukemia; above 32.7 µM in the assay on KM20L2 colon; 15 µM in the assay on DLD-1 colon; 1.58 µM in the assay with P388/ADR leukemia; above 27.4 µM with XF 498 CNS.

As for `O=C(O)CNc1ccc(C(=O)O)cc1`, the TGI in the assay on MDA-N and in the assay on 786-0 renal was above 100 µM in each case.

`Cc1ccc([N+](=O)[O-])cc1S(=O)(=O)Nc1ccc(C2=NNC(c3ccccc3O)C2)cc1` (stereo not drawn) registered a TGI with MDA-N of 93.5 µM.

As to `CCCCCCCC/C=C\CCCCCCCC(=O)O`, the TGI is 274 µM in the assay on P388 leukemia; above 500 µM with KM20L2 colon; 221 µM with DLD-1 colon; 200 µM with P388/ADR leukemia; 13.6 µM in the assay with XF 498 CNS.

Regarding `CCNc1nnc(-c2nsc3ccccc23)s1`, the TGI with LXFL 529 NSCLC and in the assay with KM20L2 colon was above 100 µM in each case.

For the compound `CC(=O)Oc1ccc2c(c1)oc1c3ccc(OC(C)=O)cc3n(C)c(=O)c21`, the TGI in the assay on MDA-N was above 100 µM.

For the compound `O=C1C=CC2=[N+]([O-])C(c3ccccc3)(c3ccccc3)C(=Nc3ccccc3)C2=C1`, the TGI in the assay with LXFL 529 NSCLC worked out at 3.36 µM; with KM20L2 colon, 5.22 µM; with DLD-1 colon it was 3.14 µM; in the assay on XF 498 CNS it was 2.71 µM; in the assay on RXF-631 renal it was 11.1 µM.

For `Cc1cc(C)c2c(c1)CC1(Cc3c(C)ccc(C)c3C1=O)C2=O` (stereo not drawn), the TGI in the assay with MDA-N was above 100 µM.
